Results: patent US20230093861A1, “RAPAMYCIN ANALOGS AS MTOR INHIBITORS” (Revolution Medicines, Inc., priority 2017, published 2023)

Legend:
P-4E-BP1 (T37/46) = assay: Cell based AlphaLISA assay, inhibition of P-4E-BP1 (T37/46) (mTORC1 substrate phosphorylation) in MDA-MB-468 cells; settings: Homo sapiens, MDA-MB-468, 4 h, AlphaLISA, two to four hours at 37° C., read-out: pIC50 for Inhibition of mTORC1 and mTORC2 Substrate Phosphorylation, P-4E-BP1-(T37/46) (converted)
In short: (§1)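 AlphaLISA SureFire Ultra read-out of P-4E-BP1 (T37/46), P-P70S6K (T389) and P-Akt (S473) in MDA-MB-468 cells after compound treatment; cells lysed in kit buffer. Alpha signal read in duplicate; IC50 from normalized concentration-response regression with control-based normalization.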

P-Akt (S473) = assay: Cell based AlphaLISA assay, inhibition of P-Akt (S473) (mTORC2 substrate phosphorylation) in MDA-MB-468 cells; settings: Homo sapiens, MDA-MB-468, 4 h, AlphaLISA, two to four hours at 37° C., read-out: pIC50 for Inhibition of mTORC1 and mTORC2 Substrate Phosphorylation, p-AKT 1/2/3 -(S473) (converted)
In short: as §1

P-P70S6K (T389) = assay: Cell based AlphaLISA assay, inhibition of P-P70S6K (T389) (mTORC1 substrate phosphorylation) in MDA-MB-468 cells; settings: Homo sapiens, 4 h, AlphaLISA, two to four hours at 37° C., read-out: pIC50 for Inhibition of mTORC1 and mTORC2 Substrate Phosphorylation, P-P70S6K-(T389) (converted)
In short: as §1

In the case of CO/N=C1/C[C@@H]([C@H](C)C[C@@H]2CC[C@H](n3cc(CCCC(=O)NCCOCCOCCOCCC(=O)NCCOCCOCCC(=O)NCCCCn4nc(-c5cc6cc(O)ccc6[nH]5)c5c(N)ncnc54)nn3)[C@H](OC)C2)OC(=O)[C@@H]2CCCCN2C(=O)C(=O)[C@]2(O)O[C@@H](CC[C@H]2C)C[C@H](OC)/C(C)=C/C=C/C=C/[C@@H](C)C[C@@H](C)C(=O)[C@H](OC)[C@H](O)/C(C)=C/[C@H]1C [Example 170], the IC50 (P-4E-BP1 (T37/46)) was > 1000 nM, the IC50 (P-Akt (S473)) was > 1000 nM and the IC50 (P-P70S6K (T389)) was 10 to 1000 nM.

COC(=O)N[C@H]1C[C@@H]2CC[C@@H](C)[C@@](O)(O2)C(=O)C(=O)N2CCCC[C@H]2C(=O)O[C@H]([C@H](C)C[C@@H]2CC[C@@H](OCCCCc3cn(CCOCCOCCOCCOCCOCCOCCOCCOCCC(=O)NCCCCn4nc(-c5cc6cc(O)ccc6[nH]5)c5c(N)ncnc54)nn3)[C@H](OC)C2)CC(=O)[C@H](C)/C=C(\C)[C@@H](O)[C@@H](OC)C(=O)[C@H](C)C[C@H](C)/C=C/C=C/C=C/1C [Example 71] was tested, and the IC50 (P-4E-BP1 (T37/46)) was 3.16 to 31.6 nM, the IC50 (P-Akt (S473)) was > 1000 nM and the IC50 (P-P70S6K (T389)) was 1 to 10 nM.

In the case of CO[C@H]1C[C@@H]2CC[C@@H](C)[C@@](O)(O2)C(=O)C(=O)N2CCCC[C@H]2C(=O)O[C@H]([C@H](C)C[C@@H]2CC[C@@H](OCCCCc3cn(CCOCCOCCOCCOCCOCCOCCOCCOCCC(=O)NCCCCn4ncc5c(N)ncnc54)nn3)[C@H](OC)C2)CC(=O)[C@H](C)/C=C(\C)[C@@H](O)[C@@H](OC)C(=O)[C@H](C)C[C@H](C)/C=C/C=C/C=C/1C [Example 5], the IC50 (P-4E-BP1 (T37/46)) was 31.6 to 1000 nM, the IC50 (P-Akt (S473)) was > 1000 nM and the IC50 (P-P70S6K (T389)) was < 1 nM.

With CO[C@H]1C[C@@H]2CC[C@@H](C)[C@@](O)(O2)C(=O)C(=O)N2CCCC[C@H]2C(=O)O[C@H]([C@H](C)C[C@@H]2CC[C@H](n3cc(-c4cccc(C(=O)NCCOCCOCCOCCC(=O)NCCOCCOCCOCCOCCC(=O)NCCCCn5nc(-c6cc7cc(O)ccc7[nH]6)c6c(N)ncnc65)c4)nn3)[C@H](OC)C2)CC(=O)[C@H](C)/C=C(\C)[C@@H](O)[C@@H](OC)C(=O)[C@H](C)C[C@H](C)/C=C/C=C/C=C/1C [Example 140] the IC50 (P-4E-BP1 (T37/46)) was 3.16 to 31.6 nM, the IC50 (P-Akt (S473)) was 31.6 to 1000 nM and the IC50 (P-P70S6K (T389)) was 1 to 10 nM.

With COc1cccc2cc(-c3nc([C@H]4CC[C@H](C(=O)NCCOCCOCCOCCNC(=O)CCOCCOCCOCCOCCn5cc(CCCCO[C@@H]6CC[C@@H](C[C@@H](C)[C@@H]7C[C@@H](OC)[C@H](C)/C=C(\C)[C@@H](O)[C@@H](OC)C(=O)[C@H](C)C[C@H](C)/C=C/C=C/C=C(\C)[C@@H](OC)C[C@@H]8CC[C@@H](C)[C@@](O)(O8)C(=O)C(=O)N8CCCC[C@H]8C(=O)O7)C[C@H]6OC)nn5)CC4)n4ncnc(N)c34)[nH]c12 [Example 190] the IC50 (P-4E-BP1 (T37/46)) was 3.16 to 31.6 nM, the IC50 (P-Akt (S473)) was 31.6 to 1000 nM and the IC50 (P-P70S6K (T389)) was < 1 nM.

CO[C@H]1C[C@@H]2CC[C@@H](C)[C@@](O)(O2)C(=O)C(=O)N2CCCC[C@H]2C(=O)O[C@H]([C@H](C)C[C@@H]2CC[C@@H](OCCCCc3cn(CCOCCOCCOCCOCCOCCOCCC(=O)NCc4ccc(Cn5nc(-c6ccc7oc(N)nc7c6)c6c(N)ncnc65)cc4)nn3)[C@H](OC)C2)CC(=O)[C@H](C)/C=C(\C)[C@@H](O)[C@@H](OC)C(=O)[C@H](C)C[C@H](C)/C=C/C=C/C=C/1C [Example 86] was tested, and the IC50 (P-4E-BP1 (T37/46)) was < 3.16 nM, the IC50 (P-Akt (S473)) was 3.16 to 31.6 nM and the IC50 (P-P70S6K (T389)) was < 1 nM.

For CO[C@H]1C[C@@H]2CC[C@@H](C)[C@@](O)(O2)C(=O)C(=O)N2CCCC[C@H]2C(=O)O[C@H]([C@H](C)C[C@@H]2CC[C@@H](OCCOCc3cn(CCOCCOCCOCCOCCOCCOCCC(=O)N4CC(Cn5nc(-c6ccc7oc(N)nc7c6)c6c(N)ncnc65)C4)nn3)[C@H](OC)C2)CC(=O)[C@H](C)/C=C(\C)[C@@H](O)[C@@H](OC)C(=O)[C@H](C)C[C@H](C)/C=C/C=C/C=C/1C [Example 57], the IC50 (P-4E-BP1 (T37/46)) was < 3.16 nM, the IC50 (P-Akt (S473)) was 3.16 to 31.6 nM and the IC50 (P-P70S6K (T389)) was < 1 nM.

COC(=O)NC1C[C@@H]2CC[C@@H](C)[C@@](O)(O2)C(=O)C(=O)N2CCCC[C@H]2C(=O)O[C@H]([C@H](C)C[C@@H]2CC[C@@H](OCCCCc3cn(CCOCCOCCOCCOCCOCCOCCC(=O)NCCCCn4nc(-c5ccc6oc(N)nc6c5)c5c(N)ncnc54)nn3)[C@H](OC)C2)CC(=O)[C@H](C)/C=C(\C)[C@@H](O)[C@@H](OC)C(=O)[C@H](C)C[C@H](C)/C=C/C=C/C=C/1C (stereo partly drawn) [Example 39] was tested, and the IC50 (P-4E-BP1 (T37/46)) was 31.6 to 1000 nM, the IC50 (P-Akt (S473)) was 31.6 to 1000 nM and the IC50 (P-P70S6K (T389)) was 1 to 10 nM.

CO[C@H]1C[C@@H]2CC[C@@H](C)[C@@](O)(O2)C(=O)C(=O)N2CCCC[C@H]2C(=O)O[C@H]([C@H](C)C[C@@H]2CC[C@@H](OC(=O)NCc3cn(CCOCCOCCOCCOCCOCCOCCOCCOCCC(=O)NCCCCn4nc(-c5ccc6oc(N)nc6c5)c5c(N)ncnc54)nn3)[C@H](OC)C2)CC(=O)[C@H](C)/C=C(\C)[C@@H](O)[C@@H](OC)C(=O)[C@H](C)C[C@H](C)/C=C/C=C/C=C/1C [Example 61] showed an IC50 (P-4E-BP1 (T37/46)) of 3.16 to 31.6 nM, an IC50 (P-Akt (S473)) of 3.16 to 31.6 nM and an IC50 (P-P70S6K (T389)) of 1 to 10 nM.

CO[C@H]1C[C@@H]2CC[C@@H](C)[C@@](O)(O2)C(=O)C(=O)N2CCCC[C@H]2C(=O)O[C@H]([C@H](C)C[C@@H]2CC[C@H](n3cc(-c4cnc(N5CCN(c6ncc(C(=O)NCCOCCC(=O)NCCCCn7nc(-c8cc9cc(O)ccc9[nH]8)c8c(N)ncnc87)cn6)CC5)nc4)nn3)[C@H](OC)C2)CC(=O)[C@H](C)/C=C(\C)[C@@H](O)[C@@H](OC)C(=O)[C@H](C)C[C@H](C)/C=C/C=C/C=C/1C [Example 110] was tested, and the IC50 (P-4E-BP1 (T37/46)) was 31.6 to 1000 nM, the IC50 (P-Akt (S473)) was > 1000 nM and the IC50 (P-P70S6K (T389)) was < 1 nM.

For CO[C@H]1C[C@@H]2CC[C@@H](C)[C@@](O)(O2)C(=O)C(=O)N2CCCC[C@H]2C(=O)O[C@H]([C@H](C)C[C@@H]2CC[C@H](n3cc(CCCC(=O)NCCOCCOCCOCCOCCC(=O)NCCOCCOCCOCCOCCC(=O)NCCCCn4nc(-c5ccc6oc(N)nc6c5)c5c(N)ncnc54)nn3)[C@H](OC)C2)CC(=O)[C@H](C)/C=C(\C)[C@@H](O)[C@@H](OC)C(=O)[C@H](C)C[C@H](C)/C=C/C=C/C=C/1C [Example 134], the IC50 (P-4E-BP1 (T37/46)) was 3.16 to 31.6 nM, the IC50 (P-Akt (S473)) was 3.16 to 31.6 nM and the IC50 (P-P70S6K (T389)) was 1 to 10 nM.

With CO[C@H]1C[C@@H]2CC[C@@H](C)[C@@](O)(O2)C(=O)C(=O)N2CCCC[C@H]2C(=O)O[C@H]([C@H](C)C[C@@H]2CC[C@@H](OCc3cccc(-c4cnc(N5CCN(Cc6cn(CCOCCOCCOCCOCCOCCC(=O)NCCCCn7nc(-c8ccc9oc(N)nc9c8)c8c(N)ncnc87)nn6)C(CO)C5)nc4)c3)[C@H](OC)C2)CC(=O)[C@H](C)/C=C(\C)[C@@H](O)[C@@H](OC)C(=O)[C@H](C)C[C@H](C)/C=C/C=C/C=C/1C (stereo partly drawn) [Example 23] the IC50 (P-4E-BP1 (T37/46)) was < 3.16 nM, the IC50 (P-Akt (S473)) was < 3.16 nM and the IC50 (P-P70S6K (T389)) was < 1 nM.

In the case of CO[C@H]1C[C@@H]2CC[C@@H](C)[C@@](O)(O2)C(=O)C(=O)N2CCCC[C@H]2C(=O)O[C@H]([C@H](C)C[C@@H]2CC[C@H](n3cc(-c4cccc(C(=O)NCCOCCOCCOCCC(=O)NCCOCCOCCOCCC(=O)NCCCCn5nc(-c6ccc7oc(N)nc7c6)c6c(N)ncnc65)c4)nn3)[C@H](OC)C2)CC(=O)[C@H](C)/C=C(\C)[C@@H](O)[C@@H](OC)C(=O)[C@H](C)C[C@H](C)/C=C/C=C/C=C/1C [Example 137], the IC50 (P-4E-BP1 (T37/46)) was 3.16 to 31.6 nM, the IC50 (P-Akt (S473)) was 31.6 to 1000 nM and the IC50 (P-P70S6K (T389)) was 1 to 10 nM.

For CO[C@H]1C[C@@H]2CC[C@@H](C)[C@@](O)(O2)C(=O)C(=O)N2CCCC[C@H]2C(=O)O[C@H]([C@H](C)C[C@@H]2CC[C@H](n3cc(COC(=O)NCCOCCOCCOCCC(=O)NCCOCCOCCOCCC(=O)NCCCCn4nc(-c5ccc6oc(N)nc6c5)c5c(N)ncnc54)nn3)[C@H](OC)C2)C/C(=N/OCc2ccccc2)[C@H](C)/C=C(\C)[C@@H](O)[C@@H](OC)C(=O)[C@H](C)C[C@H](C)/C=C/C=C/C=C/1C [Example 156], the IC50 (P-4E-BP1 (T37/46)) was > 1000 nM, the IC50 (P-Akt (S473)) was > 1000 nM and the IC50 (P-P70S6K (T389)) was > 1000 nM.

CCO[C@@H]1C[C@@H]([C@H](C)C[C@@H]2CC[C@H](n3cc(CCCC(=O)NCCOCCOCCOCCC(=O)NCCOCCOCCOCCC(=O)NCCCCn4nc(-c5ccc6oc(N)nc6c5)c5c(N)ncnc54)nn3)[C@H](OC)C2)OC(=O)[C@@H]2CCCCN2C(=O)C(=O)[C@]2(O)O[C@@H](CC[C@H]2C)C[C@H](OC)/C(C)=C/C=C/C=C/[C@@H](C)C[C@@H](C)C(=O)[C@H](OC)[C@H](O)/C(C)=C/[C@H]1C [Example 167] was tested, and the IC50 (P-4E-BP1 (T37/46)) was 31.6 to 1000 nM, the IC50 (P-Akt (S473)) was 31.6 to 1000 nM and the IC50 (P-P70S6K (T389)) was 1 to 10 nM.

For CO[C@H]1C[C@@H]2CC[C@@H](C)[C@@](O)(O2)C(=O)C(=O)N2CCCC[C@H]2C(=O)O[C@H]([C@H](C)C[C@@H]2CC[C@H](n3cc(CCCC(=O)NCCOCCOCCOCCC(=O)NCCOCCOCCC(=O)NCCCCn4nc(-c5cc6cc(O)ccc6[nH]5)c5c(N)ncnc54)nn3)[C@H](OC)C2)CC(=O)[C@H](C)/C=C(\C)[C@@H](O)[C@@H](OC)C(=O)[C@H](C)C[C@H](C)/C=C/C=C/C=C/1C [Example 129], the IC50 (P-4E-BP1 (T37/46)) was 31.6 to 1000 nM, the IC50 (P-Akt (S473)) was > 1000 nM and the IC50 (P-P70S6K (T389)) was 1 to 10 nM.
